According to PMC7988117, “OMN6 a novel bioengineered peptide for the treatment of multidrug resistant Gram negative bacteria” (Scientific Reports, 2021):
Values after ≈ are worked out from the molar mass of the structure shown. Read-outs that look alike come from different tables or passages of the source. Bridge positions count the residues as written; N and C are the ends. Peptide text beside a SMILES is read from it.

Columns and labels:
[1] = molecular target: T1, Proteinase-K (Parengyodontium album, UniProt P06873); experiment: Peptide stability to Proteinase-K (SDS-PAGE); type: in vitro ADME; details: 10 µg peptide with 5 or 20 ng Proteinase-K (0.16 or 0.66 µg/mL), 2 h, 37 °C; 15% acrylamide SDS-PAGE, Coomassie stain
T1 construct: purchased Sigma-Aldrich
T1 sequence (P06873 106-384): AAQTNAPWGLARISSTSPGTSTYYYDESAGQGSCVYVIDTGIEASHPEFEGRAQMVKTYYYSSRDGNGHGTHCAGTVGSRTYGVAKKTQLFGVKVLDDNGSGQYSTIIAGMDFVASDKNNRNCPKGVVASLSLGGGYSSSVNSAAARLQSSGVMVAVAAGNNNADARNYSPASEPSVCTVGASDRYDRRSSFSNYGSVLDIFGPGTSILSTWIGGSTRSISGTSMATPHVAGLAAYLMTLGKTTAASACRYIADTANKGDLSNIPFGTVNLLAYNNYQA
Method: 10 µg of synthetic cecropin A (Genscript, Piscataway, NJ, USA), OMN6, or bovine serum albumin (BSA; Sigma-Aldrich, St. Louis, MO, USA) were incubated with 5 or 20 ng Proteinase-K (Sigma-Aldrich; final treatment concentration of 0.16 or 0.66 µg/mL respectively) for 2 h at 37 °C, and separated on a 15% acrylamide gel (Bio-Rad, Hercules, CA, USA) by SDS-PAGE. The gel was then stained with Coomassie dye and excess color was removed over-night.

[2] = tested on: Acinetobacter baumannii clinical isolates; experiment: Time-kill studies; type: cell-based
Method: Time-kill experiments were performed by JMI Laboratories (North Liberty, IA, USA) as described in chapter 5.14 of the Clinical Microbiology Procedures Handbook[32] and the CLSI M26-A[33] document. Two Acinetobacter baumannii clinical isolates (JMI colistin-sensitive strain #1088100 and colistin-resistant strain #1001007) were used for this study. MIC values that were determined in Difco Muller Hinton Broth (BD) for OMN6 and colistin as described above, were used as the baseline values during time-kill testing. In the time-kill experiments, OMN6 and colistin were tested in Difco Muller Hinton Broth. The time-kill cultures were sampled at 0, 2, 4, 8, and 24 h after compound addition. The number of CFU/mL in each culture was measured by plating 100 μL of serial dilutions onto blood agar plates. Colonies were counted after 48 h of growth at 35 °C. Time-kill curves were generated by plotting CFU/mL as log10 values over time. The limit of detection was 10 CFU/mL. Bactericidal activity was defined as a ≥ 99.9% reduction (i.e., a ≥ 3 log10 decrease) in the number of input bacterial cells at any arbitrary timepoint.

[3] = tested on: Acinetobacter baumannii; details: for MIC: CLSI broth microdilution, Muller-Hinton broth, 18–24 h, 35 ± 2 °C
Method: (§1) This experiment was conducted by Omnix Medical, by JMI Laboratories (North Liberty, IA, USA) and by Aptuit (Verona) S.r.l. (Italy), an Evotec Company. All studies were performed according to Clinical and Laboratory Standards Institute guidelines[30] for the application of the broth microdilution method. Reference strains from American Type Culture Collection (ATCC) and clinical isolates from the Evotec EvostrAIn and the JMI Laboratories SENTRY surveillance program culture collections (Acinetobacter baumannii: ACC 00445, ACC 00527, ACC 00535, ATCC 17978, ATCC 19606, ATCC BAA-1793, ACC 01076, ACC 01077, NCTC 13420, JMI #1088100 and JMI #1001007; Klebsiella pneumoniae: ATCC 43816 and ATCC BAA-1705; Escherichia coli: ACC 01001 and ATCC 25922; Staphylococcus aureus: ATCC 29213, ATCC BAA-44 and ATCC 33591; Bacillus cereus: ATCC 14579; Enterococcus faecalis: ATCC 29212; Enterococcus faecium: ATCC BAA-2319) were used. The antimicrobial activity of OMN6 was determined by 12 serial two-fold dilutions in water of the 100-fold highest compound solution; 1 µL of each well was transferred into 96 microtiter plates (final concentration: 256–0.12 µg/mL). In most strains, same procedure was used to determine the colistin antimicrobial activity (final concentration: 32–0.015 µg/mL). Bacterial strains were sub-cultured on the agar plates and incubated for 18–24 h at 35 ± 2 °C in ambient air. Following incubation, the inoculum was prepared from isolated colonies and adjusted to 0.5 McFarland turbidity standard (1 to 2 × 10^8 colony-forming units/mL) in 0.9% saline. Bacterial suspension was then diluted 1:200 in Muller-Hinton broth (from BD; Becton, Dickinson and Company, Franklin Lakes, NJ, USA) and within 15 min 100 µL/well were dispensed. Growth-control wells and sterility-check wells (uninoculated well) were present in each plate. Plates were incubated for 18–24 h at 35 ± 2 °C in ambient air. […] The antimicrobial activity to other antibiotics on most bacterial strains was determined by Evotec using the antimicrobial sensitive test from the VITEK 2 automated microbiology system (bioMérieux SA, Marcy l'Etoile, France; data presented in Table S1), or by ATCC according to CLSI (Clinical and Laboratory Standards Institute) guidelines[30]

[4] = tested on: Klebsiella pneumoniae; details: CLSI broth microdilution, Muller-Hinton broth, 18–24 h, 35 ± 2 °C
Method: as §1

[5] = tested on: Staphylococcus aureus; details: CLSI broth microdilution, Muller-Hinton broth, 18–24 h, 35 ± 2 °C
Method: as §1

[6] = tested on: Bacillus cereus; details: B. cereus ATCC 14579; CLSI broth microdilution, Muller-Hinton broth, 18–24 h, 35 ± 2 °C
Method: as §1

[7] = tested on: Enterococcus faecalis; details: E. faecalis ATCC 29212 (Van-S); CLSI broth microdilution, Muller-Hinton broth, 18–24 h, 35 ± 2 °C
Method: as §1

[8] = tested on: Escherichia coli; details: CLSI broth microdilution, Muller-Hinton broth, 18–24 h, 35 ± 2 °C
Method: as §1

[9] = tested on: Enterococcus faecium; details: E. faecium ATCC BAA-2319 (MDR/Van-R); CLSI broth microdilution, Muller-Hinton broth, 18–24 h, 35 ± 2 °C
Method: as §1

[10] = tested on: Gram-negative bacteria; details: summary of Table 1, regardless of resistance profile
Method: as §1

In the case of `CC[C@H](C)[C@@H]1NC(=O)CNC(=O)[C@H](CC(=O)O)NC(=O)[C@H](CCCNC(=N)N)NC(=O)[C@H]([C@@H](C)CC)NC(=O)[C@H](CC(N)=O)NC(=O)[C@H](CCC(N)=O)NC(=O)CNC(=O)[C@H](C(C)C)NC(=O)[C@H](CCCCN)NC(=O)[C@H](CCC(=O)O)NC(=O)[C@H]([C@@H](C)CC)NC(=O)[C@H](CCCCN)NC(=O)[C@H](CCCCN)NC(=O)[C@H](Cc2ccccc2)NC(=O)[C@H](CC(C)C)NC(=O)[C@H](CCCCN)NC(=O)[C@H](Cc2c[nH]c3ccccc23)NC(=O)[C@H](CCCCN)NC(=O)[C@@H](NC(=O)[C@@H](N)CCSC)CSSC[C@@H](C(N)=O)NC(=O)[C@H](CCCCN)NC(=O)[C@H](C)NC(=O)[C@H]([C@@H](C)CC)NC(=O)[C@H](CCC(N)=O)NC(=O)[C@H]([C@@H](C)O)NC(=O)[C@H](C)NC(=O)[C@H](CCC(N)=O)NC(=O)CNC(=O)[C@H](C(C)C)NC(=O)[C@H](C(C)C)NC(=O)[C@H](C)NC(=O)[C@H](C(C)C)NC(=O)[C@H](C)NC(=O)[C@@H]2CCCN2C(=O)CNC(=O)[C@H](C)NC(=O)[C@H](CCCCN)NC(=O)[C@H]([C@@H](C)CC)NC1=O` [OMN6] (H-MCKWKLFKKIEKVGQNIRDGIIKAGPAVAVVGQATQIAKC-NH2; disulfide 2-40; N-terminus assumed), the “Stability after exposure to Proteinase-K” value [1] is reported as “remained intact”, the “Bactericidal pattern on colistin-resistant strain” value ([2]; colistin-resistant A. baumannii JMI #1001007, similar timeframe and concentrations as on the colistin-sensitive strain) is reported as “retained its bactericidal pattern” and the “Concentrations with bactericidal effect after 2 h of incubation” value ([2]; colistin-sensitive A. baumannii JMI #1088100, Difco Muller Hinton Broth, bactericidal = ≥ 3 log10 decrease) is reported as over 8 µg/mL. The “Re-growth during the 24 h timeframe” value ([2]; colistin-sensitive A. baumannii JMI #1088100, Difco Muller Hinton Broth, sampled 0, 2, 4, 8, 24 h) was “No re-growth”, the MIC ([3]; A. baumannii ACC 00445 (MDR/Col-S)) was 4 µg/mL (≈ 0.922 µM) and the MIC ([3]; A. baumannii ACC 00527 (MDR/Col-R)) was 4 µg/mL (≈ 0.922 µM). The MIC ([3]; A. baumannii ACC 00535 (MDR/Col-S)) was 4 µg/mL (≈ 0.922 µM), the MIC ([3]; A. baumannii ACC 01076 (MDR/Col-R)) was 8 µg/mL (≈ 1.84 µM) and the MIC ([3]; A. baumannii ACC 01077 (MDR/Col-R)) was 4 µg/mL (≈ 0.922 µM). The MIC ([3]; A. baumannii ATCC 17978 (S)) was 8 µg/mL (≈ 1.84 µM), the MIC ([3]; A. baumannii ATCC 19606 (S)) was 8 µg/mL (≈ 1.84 µM) and the MIC ([3]; A. baumannii ATCC BAA-1793 (MDR)) was 8 µg/mL (≈ 1.84 µM). The “MICs of the A. baumannii strains” value ([3]; summary of Table 1, sensitive and multidrug resistant strains) was 4 to 8 µg/mL, the MIC ([4]; K. pneumoniae ATCC 43816 (S)) was 16 µg/mL (≈ 3.69 µM) and the MIC ([4]; K. pneumoniae ATCC BAA-1705 (MDR)) was 16 µg/mL (≈ 3.69 µM). It also gave an MIC ([5]; S. aureus ATCC 29213 (MSSA)) of over 256 µg/mL, an MIC ([5]; S. aureus ATCC 33591 (MRSA)) of over 256 µg/mL and an MIC ([5]; S. aureus ATCC BAA-44 (MDR/MRSA)) of over 256 µg/mL. The MIC [6] was over 256 µg/mL, the MIC [7] was over 256 µg/mL and the MIC ([8]; E. coli ACC 01001 (mcr-1)) was 32 µg/mL (≈ 7.37 µM). For the same molecule, the MIC ([8]; E. coli ATCC 25922 (S)) was 16 µg/mL (≈ 3.69 µM), the MIC [9] was over 256 µg/mL and the “MIC on Gram-negative bacteria (all tested strains)” value [10] was at most 32 µg/mL.
